According to ChEMBL document CHEMBL1143142, “5-Substituted 1H-pyrrolo[3,2-b]pyridines as inhibitors of gastric acid secretion” (Bioorg Med Chem, 2008):

How the values were obtained:
[1] = Inhibition of hog gastric mucosa H/+K+ ATPase; format: tissue-based
[2] = Distribution coefficient, log D at pH 7.4; settings: octanol/water
[3] = test system: Gastric gland; experiment: Inhibition of gastric acid secretion in rabbit gastric gland assessed as accumulation of 14C]-[…]; format: functional, tissue-based; settings: Oryctolagus cuniculus
[4] = Dissociation constant, pKa of the compound; format: physicochemical

Structure (SMILES)	Log IC50 [1]	logD [2]	IC50 [3]	pKa [4]
CCc1cccc(C)c1CNc1cc(C(=O)N(C)C)nc2c(CO)c(C)[nH]c12	-5.7	3.27	50.1 µM	7.07
Cc1cccc(C)c1CNc1cc(C(=O)N(C)C)nc2c(CO)c(C)[nH]c12	-5.6	2.95	63.1 µM	7.2
CCc1cccc(C)c1CNc1cc(C(=O)N(C)C)nc2c(Br)c(C)[nH]c12	-5	> 4.8	10 µM	5.84
Cc1cccc(C)c1CNc1cc(C(=O)N(C)C)nc2c(CO)c(C)n(Cc3ccccc3)c12	-4.6	3.87	10 µM	6.52
Cc1cccc(C)c1CNc1cc(C(=O)N(C)C)nc2c(C)c(C)n(C)c12	-4.6	3.53	15.8 µM	7.13
CNC(=O)c1cc(NCc2c(C)cccc2C)c2[nH]c(C)c(Br)c2n1	< -4	–	5.01 µM	7.39
Cc1cccc(C)c1CNc1cc(C(=O)N(C)C)nc2c(C)c(C)n(CC(C)O)c12 (centres undefined)	-4.8	3.4	3.98 µM	7.19

Stronger by IC50 [3], values ahead:

Log IC50 [1]	logD [2]	IC50 [3]	pKa [4]	Structure (SMILES)
-5.1	5.2	1 µM	6.86	Cc1cccc(C)c1CNc1cc(C(=O)N(C)C)nc2c(C)c(C)n(Cc3ccccc3)c12
-5	> 4.8	3.16 µM	6.02	Cc1cccc(C)c1CNc1cc(C(=O)N(C)C)nc2c(Br)c(C)[nH]c12
-6.6	4.6	0.251 µM	7.57	CCc1cccc(C)c1CNc1cc(C(=O)N(C)C)nc2c(C)c(C)[nH]c12
-6.1	3.62	2.51 µM	7.3	Cc1cc2nc(C(=O)N(C)C)cc(NCc3c(C)cccc3C)c2[nH]1
-5.5	2.96	1.58 µM	7.33	CNC(=O)c1cc(NCc2c(C)cccc2C)c2[nH]c(C)cc2n1
-6.9	–	0.251 µM	7.56	Cc1cccc(C)c1CNc1cc(C(=O)N(C)C)nc2c(C)c(C)[nH]c12
-5.9	4.1	3.16 µM	7.39	CCc1cccc(C)c1CNc1cc(C(=O)N(C)C)nc2cc(C)[nH]c12
